Test results from patent publication US20250042929A1, “NEW CRYSTAL FORM OF TRISACCHARIDE” (SHANDONG HENGLU BIOTECH. CO., LTD., priority 2022, published 2025).

Assays:
Format in all cases: physicochemical
[1] = Stability study, sealed in aluminum-plastic composite film, 40° C. and 75% relative humidity
Experimental: In this invention, the quantification of LNTII is performed using high-performance liquid chromatography (HPLC) under the conditions listed below:
Chromatographic column: Asahipak NH2P-504E, 4.6 mm×250 mm, 5 μm particle size; mobile phase composition: acetonitrile to water in a ratio of 65:35; flow rate: 1 mL/min; detection method: UV-VIS detector; wavelength: 210 nm; column temperature: 30° C.; injection volume: 10 μL; total run time: 30 minutes.
Separately weigh 10 g of amorphous LNTII powder produced in Examples 1-7. Seal each sample with aluminum-plastic composite film. Store all samples in a constant temperature and humidity chamber at 40° C. and 75% relative humidity. Retrieve samples at the end of January, February, and March to assess the LNTII content and observe any changes in appearance. Record the outcomes in Table 5.

[2] = Hygroscopicity study in constant temperature and humidity chamber; settings: for Moisture rate: Example 9, after 5 days; for Added weight: about 1 g sample; for Before the experiment, appearance: before placing in chamber
Experimental: • Step 1: Preparation of glass petri dishes
One day before the experiment, place glass petri dishes (without lids) in a constant temperature and humidity chamber set at 25±1° C. and 75±2% relative humidity for 4 hours. Take out the dishes, accurately weigh, and repeat until consistent weight readings are obtained. Record the data in Table 3. • Step 2: Weigh the amorphous LNTII powder and LNTII crystalline form A from Example 1 separately, place them in the pre-weighed petri dishes from Step 1 in a constant temperature and humidity chamber set at 25° C. and 75% relative humidity. After 5 days, examine any physical changes, reweigh the samples, and calculate their hygroscopicity. Record the results in Tables 2 and 3. A comparison of the physical appearances before and after moisture exposure are depicted in FIG. 5 and FIG. 6.
Replicating the procedure outlined in Example 8, evaluate the LNTII crystalline form A samples obtained from Examples 1-7. Place the samples in pre-weighed petri dishes within a constant temperature and humidity chamber at 25° C. and 75% relative humidity. After 5 days, inspect for any changes in appearance, weigh the samples, and calculate their hygroscopicity. Document the findings in Table 4.

[3] = Stability study, sealed in aluminum-plastic composite film, 40° C. and 75% relative humidity; settings: 3 months
[4] = End of 1 month, 40° C., 75% relative humidity, HPLC
[5] = End of 2 months, 40° C., 75% relative humidity, HPLC
[6] = End of 3 months, 40° C., 75% relative humidity, HPLC
[7] = Example 8, 25° C., 75% relative humidity, 5 days

Compound | Content ([1]; Day 0, LNTII content by HPLC) | Content [1, 4] | Content [1, 5] | Content [1, 6] | Moisture rate ([2]; 25° C., 75% relative humidity) | also measured
CC(=O)NC1C(O)[C@H](O)C(CO)O[C@H]1OC1C(O)[C@H](O[C@H]2C(CO)OC(O)C(O)C2O)OC(CO)[C@@H]1O (stereo partly shown) [Example 7 Crystalline form A, Lacto-N-triose II] | 98.58% | 98.56% | 98.48% | 98.56% | 12.74% | 
CC(=O)NC1C(O)[C@H](O)C(CO)O[C@H]1OC1C(O)[C@H](O[C@H]2C(CO)OC(O)C(O)C2O)OC(CO)[C@@H]1O (stereo partly shown) [Example 2 Crystalline form A, Lacto-N-triose II] | 98.18% | 98.15% | 98.22% | 98.23% | 13.26% | 
CC(=O)NC1C(O)[C@H](O)C(CO)O[C@H]1OC1C(O)[C@H](O[C@H]2C(CO)OC(O)C(O)C2O)OC(CO)[C@@H]1O (stereo partly shown) [Example 5 Crystalline form A, Lacto-N-triose II] | 92.57% | 92.61% | 92.51% | 92.64% | 13.79% | 
CC(=O)NC1C(O)[C@H](O)C(CO)O[C@H]1OC1C(O)[C@H](O[C@H]2C(CO)OC(O)C(O)C2O)OC(CO)[C@@H]1O (stereo partly shown) [LNTII amorphous powder, Lacto-N-triose II, reference compound] |  |  |  |  |  | Content and appearance throughout the stability study, in words ([3]; listed as amorphous LNTII powder): decreases the content and the color gradually fades to pale yellow; Content ([1]; Day 0, LNTII content by HPLC, listed as Amorphous LNTII powder): 91.24%; Content ([1]; End of 1 month, 40° C., 75% relative humidity, HPLC, listed as Amorphous LNTII powder): 91.01%; Content ([1]; End of 2 months, 40° C., 75% relative humidity, HPLC, listed as Amorphous LNTII powder): 90.86%; Content ([1]; End of 3 months, 40° C., 75% relative humidity, HPLC, listed as Amorphous LNTII powder): 90.01%; Moisture rate (moisture absorption rate = added weight/sample weight × 100%) [2, 7]: 29.47%; Day 5, appearance ([2]; Example 8, 25° C., 75% relative humidity, 5 days, open petri dish): Light yellow, paste; Added weight [2, 7]: 0.2951 g; Before the experiment, appearance ([2]; Example 8): Off-white powder
CC(=O)NC1C(O)[C@H](O)C(CO)O[C@H]1OC1C(O)[C@H](O[C@H]2C(CO)OC(O)C(O)C2O)OC(CO)[C@@H]1O (stereo partly shown) [Example 4 Crystalline form A, Lacto-N-triose II] | 92.30% | 92.32% | 92.33% | 92.27% | 13.61% | 
CC(=O)NC1C(O)[C@H](O)C(CO)O[C@H]1OC1C(O)[C@H](O[C@H]2C(CO)OC(O)C(O)C2O)OC(CO)[C@@H]1O (stereo partly shown) [LNTII form A, Lacto-N-triose II] |  |  |  |  |  | Content and appearance throughout the stability study, in words ([3]; listed as LNTII crystalline form A): maintains its content and appearance throughout the stability study; Stability (from appearance changes and hygroscopicity results), in words ([2]; 25° C., 75% relative humidity, 5 days, crystalline form A compared with amorphous powder): superior to the amorphous powder; Moisture rate (moisture absorption rate = added weight/sample weight × 100%) [2, 7]: 14.17%; Added weight [2, 7]: 0.1418 g; Before the experiment, appearance ([2]; Example 8): Off-white

Now from value to compound, other results behind:

Content ([1]; Day 0, LNTII content by HPLC) | Content [1, 4] | Content [1, 5] | Content [1, 6] | Moisture rate ([2]; 25° C., 75% relative humidity) | Compound | also measured
97.98% | 98.02% | 97.97% | 97.96% | 12.87% | CC(=O)NC1C(O)[C@H](O)C(CO)O[C@H]1OC1C(O)[C@H](O[C@H]2C(CO)OC(O)C(O)C2O)OC(CO)[C@@H]1O (stereo partly shown) [Example 1 Crystalline form A, Lacto-N-triose II] | 
97.87% | 97.90% | 97.93% | 97.88% | 14.09% | CC(=O)NC1C(O)[C@H](O)C(CO)O[C@H]1OC1C(O)[C@H](O[C@H]2C(CO)OC(O)C(O)C2O)OC(CO)[C@@H]1O (stereo partly shown) [Example 3 Crystalline form A, Lacto-N-triose II] | 
91.98% | 91.94% | 91.84% | 91.93% | 13.32% | CC(=O)NC1C(O)[C@H](O)C(CO)O[C@H]1OC1C(O)[C@H](O[C@H]2C(CO)OC(O)C(O)C2O)OC(CO)[C@@H]1O (stereo partly shown) [Example 6 Crystalline form A, Lacto-N-triose II] | 
